Assay [1] has as its system human hepatitis B virus (HBV). The experiment in a line: HBV DNA by real-time PCR after 9-day treatment of HepG2.2.15 cells. The format is cell-based. The conditions noted are these: 9 days; for EC50: 216 h, HepG2.2.15 cells, read-out: overall EC50 against HBV; for inhibition at 60 µg/mL / inhibition at 250 µg/mL: HepG2.2.15, 216 h; for inhibition at 60 µg/mL: 60 ug/mL; for inhibition at 250 µg/mL: 250 ug/mL. As for the experimental part: Here we evaluate the antiviral efficacy of picolinic acid and fusaric acid against human hepatitis B virus (HBV). HepG2.2.15 cells, a cell line that was stably transfected with HBV genome was used to study the antiviral effects of PA and FA against HBV. HepG2.2.15 cells were cultured under standard conditions. HepG2.2.15 cells were seeded in a 96-well plate at 2×10^4 cells/well and grown for 24 hours. The medium was replaced with 100 uL of medium containing PA at increasing concentrations (0, 10, 100, 250, and 500 ug/mL). The concentrations of FU used were 0, 1, 10, 30, 60, and 100 ug/mL. The cells were incubated at 37° C. for 9 days. The control medium and the medium containing the antivirals were changed every 24 hours. At day 9, the culture medium containing the released HBV virions was collected, the cells washed with PBS, and lysed with lysis buffer. All samples were stored at −70° C. until analyzed.
HBV DNA from drug-treated […] cell culture medium and cell lysates was extracted using QIAamp DNA mini kit, according to manufacturer's specifications.
PCR reaction was performed in 20 uL, comprising the following compounds: dH2O; 25 mM MgCl2; 10 uM sense primer; 10 uM antisense primer; LightCycler Probe 1 (fluorescent-labeled, 5 uM); LightCycler Probe 2 (LC Red 640-labeled, 10 uM); LC FastStart DNA Master Hyb Probes; and Uracil DNA glycosylase (1 uL).
PCR mix was aliquoted and 5 uL DNA template was then added to the PCR mix. A range of HBV plasmid DNA (1×10^8, 1×10^7, 1×10^6, [ . . . ], 1×10^2, 25 copies) were used as standards for quantitative analysis.
To study the antiviral activities of PA and FA against HBV, HepG2.2.15 cells were incubated with increasing concentrations of test compounds for 9 days with medium change daily. At day 9, the medium containing secreted HBV virions was collected and used for extraction of extracellular virus DNA. The cells were lysed by 0.5% SDS and used for extraction of intracellular virus DNA. DNA was extracted using Qiagen column and then quantitatively detected by real-time PCR assay.
(Real-time PCR tracks product formation cycle by cycle.)

In a further assay the test system is CMV AD 169 strain. The experiment in a line: CMV replication in HEL-299 cells (virus titration). The conditions noted are these: Human betaherpesvirus 5, 72 h, 3 days, read-out: EC50 for inhibition of CMV replication. The format is cell-based, Cytomegalovirus. As for the experimental part: CMV AD 169 strain (ATCC) was used in the experiments. A CMV susceptible cell line, human fibroblast cells HEL-299 (ATCC), was used in the plaque reduction assays.
90% confluent HEL-299 cells were washed and then Infected with CMV AD169 at 0.5 moi for 2 h at 37° C. Following removal of viral inoculums, the Infected cells were washed and exposed to different concentrations of PA (final concentrations: 0, 10, 100, 250, 500, and 1000 ug/mL) or FA (final concentrations: 0, 1, 10, 30, 60, and 100 ug/mL for 3 days. The culture medium was collected for titration of released virions and the cells were harvested for titration of intracellular virions.
90% confluent HEL-299 cells in 24 well plates were Infected with 200 uL of CMV dilutions at 37° C. for 2 h. Following removal of virus inoculums, the infected cells were washed with PBS and overlaid with 0.5% methylcellulose in culture medium. We then treated CMV Infected cells for 3 days at 37° C. with different concentrations of PA and FA. The culture medium was collected for titration of released virus and the cells were harvested for titration of intracellular virus.

The test system of assay [2] is certain lymphomas, and viral diseases such as Herpes simplex labialis, herpes zoster and papilloma viruses. Briefly: Systemic picolinic acid capsules in humans. The format is in vivo. The settings on record: 00 gelatin capsules at 500 mg per capsule. The text has this: A systemic preparation of picolinic acid, its derivatives or analogs, containing approximately 1% to 100% active ingredient, may be administered orally, intravenously, intramuscularly or by any acceptable route for the treatment of viral systemic infections such as Dengue. […] Likewise, an injectable form may be prepared.

The subject of a further assay is J2 retrovirus. The settings on record: GG2EE transformed macrophages; cited from earlier work.
[3] abbreviates: read-out: inhibition of intracellular HBV DNA.
Where [4] appears, read: read-out: inhibition of released HBV DNA.

≈ marks a conversion by molar mass, not a printed value. Where two headings read alike, the source gives them in different places.

On to `CCCCc1ccc(C(=O)O)nc1` [FA, fusaric acid], for which the EC50 – broadly, the concentration that produces a half-maximal response – in assay [1] is over 60 µg/mL; with CMV AD 169 strain, about 60 µg/mL (≈ 335 µM). Moreover, the inhibition (usually the drop in the measured response relative to a control, in per cent) at 60 µg/mL in assay [1] (setting [3]) was found to be 28%; in assay [1] (setting [4]), 76.5%.

For the compound `O=C(O)c1ccccn1` [PA, picolinic acid], the “control of certain lymphomas and viral diseases in humans” value in assay [2] is “effective”. Also, the EC50 was about 139 µg/mL (≈ 1130 µM) in assay [1] and about 230 µg/mL (≈ 1870 µM) in the assay on CMV AD 169 strain. Moreover, the inhibition at 250 µg/mL in assay [1] (setting [3]) stood at 79.4%; in assay [1] (setting [4]) it was 72.3%. In addition, the J2 retrovirus expression result in the assay with J2 retrovirus is reported as “not affected”.

The values are drawn from patent US20100015174A1, “METHOD TO CONTROL DENGUE VIRUSES IN HUMANS BY PICOLINIC ACID AND DERIVATIVES THEREOF” (priority 2008, published 2010).
